Assay results as given in ChEMBL document CHEMBL5247589, “Natural occurrence, bioactivity, and biosynthesis of triene-ansamycins” (Eur J Med Chem, 2022).
≈ marks a conversion by molar mass, not a printed value.

Legend:
HepG2 [1] = experiment: Antitumor activity against human HepG2 cells incubated for 72 hrs by SRB calorimetric assay; assay type: functional, cell-based; conditions: HepG2, 72 h
PC-3 [2] = experiment: Antitumor activity against human PC-3 cells incubated for 72 hrs by SRB calorimetric assay; assay type: functional, cell-based; conditions: PC-3, 72 h
PANC-1 = experiment: Antitumor activity against human PANC-1 cells incubated for 48 to 72 hrs by MTS Assay; assay type: functional, cell-based
Capan-2 = experiment: Antitumor activity against human Capan-2 cells incubated for 48 to 72 hrs by MTS Assay; assay type: functional, cell-based
BXPC-3 = experiment: Antitumor activity against human BXPC-3 cells incubated for 48 to 72 hrs by MTS Assay; assay type: functional, cell-based
[3] = Inhibition of NO production in LPS stimulated mouse BV-2 cells measured after 24 hrs; assay type: functional, cell-based; conditions: BV-2, 24 h
HeLa [4] = experiment: Antitumor activity against human HeLa cells assessed as cell growth inhibition incubated for 5 days by MTT assay; assay type: functional, cell-based; conditions: 120 h
Ca-Ski = experiment: Antitumor activity against human Ca-Ski cells assessed as cell growth inhibition incubated for 5 days by MTT assay; assay type: functional, cell-based; conditions: 120 h
C-33-A = experiment: Antitumor activity against human C-33-A cells assessed as cell growth inhibition incubated for 5 days by MTT assay; assay type: functional, cell-based; conditions: 120 h
HT-3 = experiment: Antitumor activity against human HT-3 cells assessed as cell growth inhibition incubated for 5 days by MTT assay; assay type: functional, cell-based; conditions: HT-3, 120 h
SiHa = experiment: Antitumor activity against human SiHa cells assessed as cell growth inhibition incubated for 5 days by MTT assay; assay type: functional, cell-based; conditions: 120 h
A549 = experiment: Antitumor activity against human A549 cells incubated for 72 hrs by MTT assay; assay type: functional, cell-based; conditions: A549, 72 h
MCF7 = experiment: Antitumor activity against human MCF7 cells incubated for 72 hrs by MTT assay; assay type: functional, cell-based; conditions: MCF7, 72 h
K562 = experiment: Antitumor activity against human K562 cells incubated for 24 hrs by CCK-8 assay; assay type: functional, cell-based; conditions: K562, 24 h
HeLa [5] = experiment: Antitumor activity against human HeLa cells; assay type: functional, cell-based
HT-29 = experiment: Antitumor activity against human HT29 cells; assay type: functional, cell-based
U-937 = experiment: Antitumor activity against human U937 cells; assay type: functional, cell-based
HCT-116 = experiment: Antitumor activity against human HCT116 cells; assay type: functional, cell-based
HL-60 [6] = experiment: Antitumor activity against human HL60 cells; assay type: functional, cell-based
THP-1 = experiment: Antitumor activity against human THP1 cells; assay type: functional, cell-based
B16 = experiment: Antitumor activity against mouse B-16 cells; assay type: functional, cell-based
PC-3 [7] = experiment: Antiproliferative activity against human PC3 cells assessed as cell viability incubated for 48 hrs by Cell Counting Kit-8 assay; assay type: functional, cell-based; conditions: PC-3, 48 h
HepG2 [8] = experiment: Antiproliferative activity against human HepG2 cells assessed as cell viability incubated for 48 hrs by Cell Counting Kit-8 assay; assay type: functional, cell-based; conditions: HepG2, 48 h
[9] = Antiproliferative activity against human U87 cells overexpressing miR-9 assessed as cell viability incubated for 48 hrs by Cell Counting Kit-8 assay; assay type: functional, cell-based, U-87MG ATCC; conditions: U-87 MG
PC-3 [10] = experiment: Antiproliferative activity against human PC-3 assessed as cell growth inhibition incubated for 48 hrs by Cell Counting Kit-8 assay; assay type: functional, cell-based; conditions: PC-3, 48 h
HepG2 [11] = experiment: Antiproliferative activity against human HepG2 assessed as cell growth inhibition incubated for 48 hrs by Cell Counting Kit-8 assay; assay type: functional, cell-based; conditions: HepG2, 48 h
[12] = Antiproliferative activity against human U-87 MG assessed as cell growth inhibition incubated for 48 hrs by Cell Counting Kit-8 assay; assay type: functional, cell-based, U-87MG ATCC
HL-60 [13] = experiment: Antitumor activity against human HL60 cells assessed as cell growth incubated for 1 day by MTT assay; assay type: functional, cell-based; conditions: HL-60, 24 h
[14] = Cytotoxicity against human WI-38 cells assessed as cell growth incubated for 1 day by MTT assay; assay type: toxicity, cell-based
Pyricularia oryzae = experiment: Antimicrobial activity against Pyricularia oryzae by agar dilution method; assay type: functional
HL-60 [15] = experiment: Induction of apoptosis in human HL-60 cells assessed as effective dose; assay type: functional; conditions: read-out: ED50 (the source's name)
[16] = Inhibition of bovine brain FTase; parameters: species or system Bos taurus

**Q.** For `CCCC(=O)N[C@H](C)C(=O)O[C@H]1C/C=C/C=C/C=C/[C@H](OC)CC(=O)Nc2cc(O)cc(c2)CC/C=C(/C)[C@H](O)[C@H]1C`, which IC50 (HepG2 [1]) is on record?
**A.** 2040 nM

**Q.** What about the IC50 (PC-3 [2]) of the same compound?
**A.** 2040 nM

**Q.** And the IC50 (PANC-1)?
**A.** 2040 nM

**Q.** And the IC50 (Capan-2)?
**A.** 2040 nM

**Q.** What about the IC50 (BXPC-3) of the same compound?
**A.** 2040 nM

**Q.** Which IC50 (PANC-1) does the source give for `CO[C@H]1/C=C/C=C/C=C/C[C@H](O)[C@H](C)[C@@H](OC(=O)[C@@H](C)NC(=O)C2CCCCC2)/C(C)=C\CCc2cc(O)cc(c2)NC(=O)C1` here?
**A.** > 10000 nM

**Q.** And the IC50 (Capan-2)?
**A.** > 10000 nM

**Q.** And the IC50 (BXPC-3)?
**A.** > 10000 nM

**Q.** And the EC50 [3]?
**A.** 292 nM

**Q.** Which results are given for `CO[C@H]1/C=C/C=C/C=C/C[C@H](OC(=O)[C@@H](C)NC(=O)C2CCCCC2)[C@H](C)[C@@H](O)/C(C)=C\CCC2=C(O)C(=O)C=C(NC(=O)C1)C2=O`?
**A.** IC50 (HeLa [4]): 70 nM; IC50 (Ca-Ski): 70 nM; IC50 (C-33-A): 70 nM; IC50 (HT-3): 70 nM; IC50 (SiHa): 70 nM

**Q.** With `CO[C@H]1/C=C/C=C/C=C/C[C@H](OC(C)=O)[C@H](C)[C@@H](O)/C(C)=C\CCc2cc(O)cc(c2)NC(=O)C1` as the compound, how does the IC50 (A549) read?
**A.** > 10 µM

**Q.** And the IC50 (MCF7)?
**A.** > 10 µM

**Q.** And the IC50 (K562)?
**A.** > 10 µM

**Q.** Which IC50 (HeLa [5]) does the source give for `CO[C@H]1/C=C/C=C/C=C/C[C@H](OC(=O)C2(NC(=O)C3=CCCCC3)CC2)[C@H](C)[C@@H](O)/C(C)=C\CCc2c(O)c(cc3c2SCC(=O)N3)NC(=O)C1` here?
**A.** 300 nM

**Q.** What about the IC50 (HT-29) of the same compound?
**A.** 300 nM

**Q.** And the IC50 (U-937)?
**A.** 300 nM

**Q.** And the IC50 (HCT-116)?
**A.** 300 nM

**Q.** And the IC50 (HL-60 [6])?
**A.** 300 nM

**Q.** What about the IC50 (THP-1) of the same compound?
**A.** 300 nM

**Q.** What about the IC50 (B16) of the same compound?
**A.** 300 nM

**Q.** What does the source list for `CO[C@@H]1CC(=O)Nc2c(O)c3cc4c2[C@H]1[C@@H](/C=C/C=C/C[C@H](O)[C@H](C)[C@@H](OC(=O)[C@@H](C)NC(=O)C1CCCCC1)/C(C)=C\CC3)O4`?
**A.** IC50 (PC-3 [7]): > 10 µM; IC50 (HepG2 [8]): > 10 µM; IC50 [9]: > 10 µM

**Q.** With `CO[C@H]1/C=C/C=C/C=C/C[C@H](O)[C@H](C)[C@@H](OC(=O)[C@@H](C)NC(=O)C2CCCCC2)/C(C)=C\CCC2=C(O)C(=O)C=C(NC(=O)C1)C2=O` as the compound, how does the IC50 (HeLa [4]) read?
**A.** 450 nM

**Q.** What about the IC50 (Ca-Ski) of the same compound?
**A.** 450 nM

**Q.** What about the IC50 (C-33-A) of the same compound?
**A.** 450 nM

**Q.** And the IC50 (HT-3)?
**A.** 450 nM

**Q.** And the IC50 (SiHa)?
**A.** 450 nM

**Q.** Which IC50 (PC-3 [10]) does the source give for `CO[C@@H]1CC(=O)Nc2c(O)c3cc4c2[C@H]1[C@@H](/C=C/C=C/C[C@H](OC(=O)[C@@H](C)NC(=O)C1CCCCC1)[C@H](C)[C@@H](O)/C(C)=C\CC3)O4` here?
**A.** 2210 nM

**Q.** What about the IC50 (HepG2 [11]) of the same compound?
**A.** 610 nM

**Q.** What about the IC50 [12] of the same compound?
**A.** 7.01 µM

**Q.** What does the source list for `CO[C@H]1/C=C/C=C/C=C/C[C@H](OC(=O)C2(NC(=O)C3=CCCCC3)CC2)[C@H](C)[C@@H](O)/C(C)=C\CCc2cc(O)cc(c2O)NC(=O)C1`?
**A.** IC50 (HL-60 [13]): 7.7 nM; IC50 at 1 day [14]: 7.7 nM; MIC (Pyricularia oryzae): 12.5 µg/mL (≈ 19.3 µM); EC50 (HL-60 [15]): 7.7 µM

**Q.** For `CO[C@H]1/C=C/C=C/C=C/C[C@H](OC(=O)[C@@H](C)NC(=O)C2=CCCCC2)[C@H](C)[C@@H](O)/C(C)=C\CCc2cc(O)cc(c2O)NC(=O)C1`, which IC50 [16] is on record?
**A.** 1.2 µg/mL (≈ 1.88 µM)
